Results from US12060388B2, “Cell-penetrating peptides and methods of use thereof” (priority 2018, dated 2024).

Experiments:
authentic HPV16 = experiment: Inhibition of authentic HPV16 in HeLa cells, qRT-PCR for viral mRNA; type: cell-based; conditions: 14 μM, HPV16 from organotypic raft cultures, qRT-PCR 48 h.p.i.
Protocol: To measure the inhibition of infection by authentic HPV16, HeLa cells were infected with 5 μL raft-derived HPV16 (obtained from Craig Meyers, Hershey Medical Center) or with HPV16 PsV in the presence and absence of 14 μM P16/16, and total RNA was isolated 48 h.p.i. by using the RNeasy kit following the manufacturer's instructions. RNA was reverse-transcribed into cDNA by iScript cDNA Synthesis kit. The cDNA was quantified in triplicate by using SYBR Green Supermix real-time PCR detection system and primers for HPV16 E7 or HcRed. Actin mRNA were used for normalization.

HPV16 PsV = HPV16 PsV internalization in peptide-treated HeLa-S3 cells, anti-L1 immunofluorescence; type: cell-based; conditions: 14 μM, MOI of 50, 8 or 16 h at 37° C.
Protocol: HeLa-S3 cells were incubated with 14 μM P16/16 or vehicle for one hour, followed by infection with HPV16 PsV at MOI of 50 at 4° C. for 2 h. Cells were washed with PBS to remove loosely-bound PsV and then shifted to 37° C. to allow virus internalization. After 8 or 16 h at 37° C., samples were fixed with 4% paraformaldehyde, permeabilized with 1% saponin, and stained with anti-L1 antibody. Cells were also stained with DAPI to visualize nuclei and examined by a Leica SP5 confocal microscope.
For the internalization experiments, 5×10^4 HeLa-S3 cells were grown on glass coverslips for 16 hours. After one-hour incubation with or without peptides, PsV at MOI of 50 were added and incubated at 4° C. for 2 hours, washed with PBS three times to remove loosely bound PsV, and shifted to 37° C.to initiate infection. As a control, cells were incubated with the solution used to dissolve peptides alone. At the indicated times post-infection, samples were fixed, permeabilized and stained with anti-L1 and AlexaFluor 488 conjugated secondary antibody. Cells were analyzed by a Leica SP5 confocal microscope.

TGN46 / HPV16 L1 = experiment: Proximity ligation assay for L1 and TGN46 in peptide-treated infected cells; type: cell-based; conditions: 14 μM, MOI of 200, 16 h.p.i.
Protocol: HeLa-S3 cells grown on glass coverslips for 16 hours were incubated for one hour with or without 14 μM P16/16, followed by mock-infection or infection with HPV16 PSV at MOI of 200. 8 and 16 h.p.i., cells were processed for PLA with anti-L1 antibody and an antibody recognizing EEA1 (FIG. 20A) or TGN46 (FIG. 20B). PLA was performed as in FIG. 19B. The PLA signal for EEA1/L1 was normalized to that of cells infected with HPV16 PsV in the absence of peptide at 8 h.p.i., while the TGN46/L1 signal was normalized to untreated cells at 16 h.p.i.
For the proximity ligation assay, after an hour incubation with peptides, HeLa-S3 cells were infected with wild-type PSV at MOI of 200 or mutant PsV containing the same number of reporter plasmid genomes. Infected cells were fixed at 8 or 16 h.p.i., permeabilized, and incubated with 1:100 dilutions of anti-L1 antibody and an antibody recognizing EEA1, TGN46, or VPS35. […] The nuclei were stained by using Abcam fluorescence mounting medium with DAPI and images were acquired by a Leica SP5 inverted fluorescence microscope. […] The images were processed by Fiji and quantitatively analyzed by BlobFinder software to measure total fluorescence intensity in each sample. The average fluorescence intensity per cell in each sample was normalized to the control sample as indicated in each experiment. […]

retromer (Vps35) = molecular target: T1, retromer (Vps35) (Homo sapiens, UniProt O75436+Q96QK1); experiment: Biotinylated peptide pull-down from HeLa S3 lysate, blot for Vps35; type: binding; conditions: streptavidin pull-down
T1 construct: endogenous in cells; host or cells: HeLa S3 lysate (RIPA-MOPS buffer)
Protocol: For peptide pull-down experiments, N-terminal biotinylated L2 peptides (sequences shown in FIG. 2A) were purchased from ABClonal Science (Woburn, MA) at >95% purity. L2 wild-type was dissolved initially in 30% acetic acid and DMSO (˜70 μl each), and then dissolved in sterile deionized water with 0.01% sodium azide. L2-6A, L2-3R and L2-DM were initially solubilized in a small amount of DMSO (˜70-80 μl) and then dissolved in sterile deionized water with 0.01% sodium azide. Peptide stocks (5 mg/ml) were aliquoted and stored at −20° C. HeLa S3 cells plated in six-well plates were lysed at ˜80% confluency with 500 μl RIPA-MOPS buffer (20 mM morpholinepropanesulfonic acid [pH 7.0], 150 mM NaCl, 1% Nonidet P-40, 1 mM EDTA, 1% deoxycholic acid, 0.1% sodium dodecyl sulfate [SDS]) supplemented with protease inhibitors (1×HALT protease and phosphatase inhibitor cocktail (Thermo Scientific, Waltham, MA; #78443)). The lysate was centrifuged at 14,000 rpm for 20 min, and the supernatant was incubated with 10 μg of a biotinylated peptide for two h at 4° C. Fifty μl of streptavidin agarose beads slurry (Pierce, Rockford, IL; #20349) was added, and the mixture was gently rocked for 45 min at 4° C. […] Samples were analyzed by SDS-PAGE and immunoblotting with antibody recognizing Vps35 (Abcam, Cambridge, MA; ab57632).

Structure (SMILES): CC[C@H](C)[C@H](NC(=O)[C@@H](NC(=O)[C@H](Cc1ccc(O)cc1)NC(=O)[C@H](CCC(N)=O)NC(=O)[C@@H]1CCCN1C(=O)[C@H](CO)NC(=O)[C@@H](N)CS)[C@@H](C)O)C(=O)N[C@H](C(=O)N[C@@H](C)C(=O)N[C@@H](CC(=O)O)C(=O)N[C@@H](C)C(=O)NCC(=O)N[C@@H](CC(=O)O)C(=O)N[C@@H](Cc1ccccc1)C(=O)N[C@@H](Cc1ccc(O)cc1)C(=O)N[C@@H](CC(C)C)C(=O)N[C@@H](Cc1c[nH]cn1)C(=O)N1CCC[C@H]1C(=O)N[C@@H](CO)C(=O)N[C@@H](Cc1ccc(O)cc1)C(=O)N[C@@H](Cc1ccc(O)cc1)C(=O)N[C@@H](CCSC)C(=O)N[C@@H](CC(C)C)C(=O)N[C@@H](CCCNC(=N)N)C(=O)N[C@@H](CCCCN)C(=O)N[C@@H](CCCNC(=N)N)C(=O)N[C@@H](CCCNC(=N)N)C(=O)N[C@@H](CCCCN)C(=O)N[C@@H](CCCNC(=N)N)C(=O)O)[C@@H](C)CC [P16/16]
- inhibition of authentic HPV16 (authentic HPV16): inhibited
- virus internalization (HPV16 PsV): did not inhibit virus internalization
- TGN46/L1 PLA at 16 h.p.i. (TGN46 / HPV16 L1): inhibited the arrival of HPV in the TGN
- retromer binding of L2 peptide in vitro (retromer (Vps35)): competent for retromer binding in vitro
